The target of data set [1] is T1, CCR3 receptor (UniProt P51677).
T1 sequence (P51677 1-355): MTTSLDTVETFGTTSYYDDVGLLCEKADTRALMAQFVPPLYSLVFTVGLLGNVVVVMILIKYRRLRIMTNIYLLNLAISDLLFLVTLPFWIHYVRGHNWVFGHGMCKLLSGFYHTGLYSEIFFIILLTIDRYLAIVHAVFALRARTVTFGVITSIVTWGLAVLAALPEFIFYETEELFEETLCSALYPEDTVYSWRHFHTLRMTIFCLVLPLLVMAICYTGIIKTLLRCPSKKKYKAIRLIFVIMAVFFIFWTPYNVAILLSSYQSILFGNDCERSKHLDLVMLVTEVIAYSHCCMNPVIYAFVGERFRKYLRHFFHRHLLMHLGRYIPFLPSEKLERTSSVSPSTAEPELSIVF
The data set is described as follows: CCR3 receptor binding assay ([125I]-labeled human eotaxin/CCL11 displacement on cells). The note with it: 0.1 nM [125I]-labeled human eotaxin/CCL11, 60 min at room temperature. As for the experimental part: Cells were washed once with PBS and resuspended in a binding buffer (25 mM HEPES pH 7.6, 5 mM MgCl2, 1 mM CaCl2, 0.5% BSA, 0.1% NaN3). […] of cell suspension (2×10^5 cells/well) and 0.1 nM [^125I]-labeled human eotaxin/CCL11 (2000 Ci/mmol specific activity) were mixed in a 96-well U-bottom polypropylene plate, and incubated for 60 min at room temperature for the binding reaction. The cell suspension was then transferred to a filtration plate (#MAFB, Millipore), and washed 3 times with the binding buffer containing 0.5 M NaCl, scintillant added, and the radioactivity was counted on a TopCount (Packard). For the determination of non-specific binding, the cell suspension and [^125I]-labeled human eotaxin/CCL11 were incubated in the presence of 500 nM of unlabeled human eotaxin/CCL11. See, Iino et al., “Molecular cloning and functional characterization of cynomolgus monkey (Macaca fascicularis) CC chemokine receptor, CCR3,” Cytokine 2002, 19, 276-286.

Data set [2] can be described thus: Pharmacokinetic studies in male CD1 mice (PO and IV dosing, plasma by HPLC and MS). The note with it: for Cmax / AUC(0-inf): male, CD1, mouse. It is filed as in vivo, mouse. As for the experimental part: Pharmacokinetic properties of compounds A1 and A2 were determined using 144 male CD1 mice, each approximately 25 g. Animals were acclimated for 2-3 days prior to study. Body weights of animals were measured for randomization. Animals were randomized into groups of 3 mice by body weights. Compounds A1 and A2 were provided at 2 mg/mL for oral dosing and 0.2 mg/mL for intravenous dosing. Each mouse received 100 μL of a test compound (or a body weight justified dose (5 mL/kg) via PO or IV on dosing days. Approximately 1.0 mL of the whole blood was collected for each animal via cardiac puncture at each time points. The blood was collected into lithium heparin tubes, processed to plasma, and snap frozen in dry ice. Plasma samples were stored at −80° C. before analysis. The samples were further analyzed by HPLC and MS.

Like-named read-outs stand apart in the source and are kept apart here.

With `[2H]c1c([2H])c(Sc2cc(Cl)cc(Cl)c2)c(S(=O)(=O)N2CCN(C3CCCC3)CC2)c([2H])c1C#N` [Compound A1], in data set [1], the affinity corresponds to a Ki of 5.4 nM. For the same compound, the Cmax – broadly, the peak of the concentration-time curve – in data set [2] (oral, 10 mg/kg, 2 mg/mL oral, 0.2 mg/mL intravenous dosing, 5 mL/kg, read-out: Cmax) was found to be 149 ng/mL; in data set [2] (oral, 10 mg/kg, dose-normalised, read-out: Cmax,norm) it was 14.9 ng/mL. Also, the AUC(0-inf) in data set [2] (oral, 10 mg/kg, AUCinf,norm, dose-normalised, heading: AUCinf,norm) is 106 ng·h/mL; in data set [2] (oral, 10 mg/kg, read-out: AUCinf) it was 1060 ng·h/mL. For the same compound, the mean residence time (MRT) (commonly a mean duration of stay, worked out from the concentration-time curve) in data set [2] (mouse) came to 6.9 h. Also, the half-life (usually the time needed for the level to fall by half in the phase considered) in data set [2] (mouse) is 151 min. Further, the bioavailability (in general, the share of a dose that reaches the circulation, judged against a reference dose that is usually intravenous) in data set [2] (mouse, PO versus IV) was determined as 31.8%. In data set [2] (mouse, oral, 10 mg/kg), the Tmax – broadly, the time from dosing to the highest level – came out at 30 min.
